Laboratory results as given in ChEMBL document CHEMBL1201862, “PubChem BioAssay data set” (2004).
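Cultured in 96-well plates, cells were exposed to test compound for 48 hours across five concentrations. The concentration for 50% growth inhibition is given as GI50.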 Active and inactive are the calls of the source. No stated cut-off is given here; in the data, active = GI50 up to about 1.1 µM and inactive = higher.

How the values were obtained:
Assay in all cases: inhibition of tumour cell growth, NCI panel, 48 h
CAKI-1 = test system: CAKI-1
CCRF-CEM = test system: CCRF-CEM
COLO 205 = test system: COLO 205
HCT-116 = test system: HCT-116
HCT-15 = test system: HCT-15
HOP-62 = test system: HOP-62
HT-29 = test system: HT-29
IGROV-1 = test system: IGROV-1
K562 = test system: K562
LOX IMVI = test system: LOX IMVI
MCF7 = test system: MCF7
MDA-MB-435 = test system: MDA-MB-435
MDA-N = test system: MDA-N
Malme-3M = test system: Malme-3M
OVCAR-4 = test system: OVCAR-4
OVCAR-5 = test system: OVCAR-5
RXF 393 = test system: RXF 393
SK-OV-3 = test system: SK-OV-3
SNB-75 = test system: SNB-75

Row | Compound | GI50 (CAKI-1) | GI50 (CCRF-CEM) | GI50 (COLO 205) | GI50 (HCT-116) | GI50 (HCT-15) [µM] | GI50 (HOP-62) | GI50 (HT-29) | GI50 (IGROV-1) | GI50 (K562) | GI50 (LOX IMVI) | GI50 (MCF7) | GI50 (MDA-MB-435) | GI50 (MDA-N) | GI50 (Malme-3M) | GI50 (OVCAR-4) | GI50 (OVCAR-5) | GI50 (RXF 393) | GI50 (SK-OV-3) | GI50 (SNB-75)
1 | CNC1NC(=O)c2ccccc2N1Cc1ccc(F)cc1 (centres undefined) | > 100 µM (inactive) | > 100 µM (inactive) | > 100 µM (inactive) | > 100 µM (inactive) | > 100 | > 100 µM (inactive) | > 100 µM (inactive) | > 100 µM (inactive) | > 100 µM (inactive) | > 100 µM (inactive) | > 100 µM (inactive) | > 100 µM (inactive) | > 100 µM (inactive) | > 100 µM (inactive) | > 100 µM (inactive) | > 100 µM (inactive) | > 100 µM (inactive) | > 100 µM (inactive) | > 100 µM (inactive)
2 | COC(=O)c1cc(C)ccc1CC(Cc1ccc(C)cc1)C(=O)OC (centres undefined) | 36.6 µM (inactive) | 62.8 µM (inactive) | 14.8 µM (inactive) | 10.5 µM (inactive) | 10.9 | > 100 µM (inactive) | 5.58 µM (inactive) | 72.4 µM (inactive) | 3.18 µM (inactive) | 19.1 µM (inactive) | 26.3 µM (inactive) | 31 µM (inactive) | 40.6 µM (inactive) | 22 µM (inactive) | 38.8 µM (inactive) | 9.86 µM (inactive) | 2.87 µM (inactive) | 26.6 µM (inactive) | 6.78 µM (inactive)
3 | Cc1nc(-c2ccc([N+](=O)[O-])cc2)cn2c1nc1ccccc12 | > 100 µM (inactive) | > 100 µM (inactive) | > 100 µM (inactive) | > 100 µM (inactive) | > 100 | 36.5 µM (inactive) | > 100 µM (inactive) | > 100 µM (inactive) | > 100 µM (inactive) | > 100 µM (inactive) | 58.3 µM (inactive) | > 100 µM (inactive) | > 100 µM (inactive) | > 100 µM (inactive) | > 100 µM (inactive) | > 100 µM (inactive) | 41.6 µM (inactive) | 18.9 µM (inactive) | 24.6 µM (inactive)
4 | O=C(NC(CO)CO)c1ccc2cc(C(=O)N3CC(CCl)c4ccc([N+](=O)[O-])cc43)[nH]c2c1 (centres undefined) | > 100 µM (inactive) | > 100 µM (inactive) | 50 µM (inactive) | > 100 µM (inactive) | > 100 | > 100 µM (inactive) | > 100 µM (inactive) | > 100 µM (inactive) | > 100 µM (inactive) | > 100 µM (inactive) | > 100 µM (inactive) | > 100 µM (inactive) | > 100 µM (inactive) | > 100 µM (inactive) | > 100 µM (inactive) | > 100 µM (inactive) | > 100 µM (inactive) | > 100 µM (inactive) | > 100 µM (inactive)
5 | CCCC(=O)NC(Nc1cc(C)ccn1)(C(=O)OCC)C(F)(F)F (centres undefined) | > 100 µM (inactive) | > 100 µM (inactive) | > 100 µM (inactive) | > 100 µM (inactive) | > 100 | > 100 µM (inactive) | > 100 µM (inactive) | > 100 µM (inactive) | > 100 µM (inactive) | > 100 µM (inactive) | > 100 µM (inactive) | > 100 µM (inactive) | > 100 µM (inactive) | > 100 µM (inactive) | > 100 µM (inactive) | > 100 µM (inactive) | > 100 µM (inactive) | > 100 µM (inactive) | > 100 µM (inactive)
6 | COc1ccc(OC)c2c1C1CCC(=O)N1CN2C(C)=O (centres undefined) | > 100 µM (inactive) | > 100 µM (inactive) | > 100 µM (inactive) | > 100 µM (inactive) | > 100 | > 100 µM (inactive) | > 100 µM (inactive) | > 100 µM (inactive) | > 100 µM (inactive) | > 100 µM (inactive) | > 100 µM (inactive) | > 100 µM (inactive) | > 100 µM (inactive) | > 100 µM (inactive) | > 100 µM (inactive) | > 100 µM (inactive) | > 100 µM (inactive) | > 100 µM (inactive) | > 100 µM (inactive)
